Experimental data as given in patent US20240317866A1, “Use of Anti-EGFR/Anti-Met Antibody to Treat Gastric or Esophageal Cancer” (Janssen Biotech, Inc., priority 2022, published 2024).

System: gastric cancer (GC, including GEJ cancer) expressing EGFR and/or cMet
Experiment: Phase 2a study of amivantamab monotherapy, gastric cancer cohort: response by RECIST Version 1.1, investigator judgement
Type: in vivo, human
From the text: Approximately 30 participants with any expression level of EGFR, cMet, or both proteins are enrolled in each of the Phase 2a cohort. However, based on the priorexperiences investigating anti-EGFR andanti-cMet antibodies in gastroesophageal cancers, at least 20 participants expressing IHC 2+ or higher (defined as participants expressing EGFR IHC 2+ or above and/or cMet IHC 2+ or above) are enrolled. Additional enrollment in Phase 2a cohorts may be allowed to achieve this minimal enrollment.
This is an open-label, multicenter, multi-arm Phase 2 interventional study in participants with previously treated advanced or unresectable GC or EC who are 20 years or older (or the legal age of consent in the jurisdiction in which the study is taking place). Japanese participants with gastric/GEJ or EC who express varying degrees of EGFR, cMet, or both as determined by IHC locally or centrally are enrolled in the GC cohort or EC cohort.
The baseline disease assessments are performed as close as possible to the start of treatment, but no more than 28 days prior to the first dose. Subsequent assessments are performed at 6 weeks (+1 week) after initiation of study treatment administration, then every 6 weeks (±1 week) for the first 12 months and then every 12 weeks (±1 week) until objective radiographic disease progression. Timing for each disease assessment is relative to the first dose of study treatment administration, regardless of dose modifications, and continues until disease progression. Any other site at which new disease is suspected is also imaged.
For purposes of analysis, the following populations are defined: • (1) All Treated population: All participants who take at least 1 dose of study treatment; • (2) Response evaluable population: All participants who satisfy the following criteria: • Receive at least 1 dose of study treatment; • At least 2 post-baseline efficacy disease assessments, or discontinued treatment for any reason, or have disease progression/death prior to the second post-baseline disease assessment; • (3) Safety population: All participants who take at least 1 dose of study treatment; • (4) Pharmacokinetics population: All participants who receive at least 1 dose of study treatment and have at least 1 evaluable post-baseline measurement; • (5) Immunogenicity population: All participants who receive at least 1 dose of study treatment and have at least 1 evaluable post-baseline measurement.
The primary efficacy measure is ORR. Objective response rate is defined as the proportion of participants who achieve either CR or PR, determined by investigator assessment using RECIST Version 1.1. Confirmation of investigator-assessed ORR may be performed through IRC in the Phase 2b.
Disease Control Rate: Disease control rate is defined as the percentage of participants achieving complete or partial response or stable disease for at least 6 weeks as defined by RECIST Version1.1. The DCR and its 95% CI with Clopper-Pearson method are also calculated.
Next, response to treatment was evaluated. The “All Treated” patient population were patients who received at least 1 dose of study treatment.

[1] = all treated population, IHC 1+, N=5, 1,050/1,400 mg IV
[2] = all treated population, IHC 1+, N=5, 1,050/1,400 mg IV, number of participants
[3] = all treated population, IHC 2+, N=11, 1,050/1,400 mg IV
[4] = all treated population, IHC 2+, N=11, 1,050/1,400 mg IV, number of participants
[5] = all treated population, IHC 3+, N=9, 1,050/1,400 mg IV
[6] = all treated population, IHC 3+, N=9, 1,050/1,400 mg IV, number of participants
[7] = all treated population, IHC NA, N=4, 1,050/1,400 mg IV
[8] = all treated population, IHC NA, N=4, 1,050/1,400 mg IV, number of participants
[9] = all treated population, Total, N=29, 1,050/1,400 mg IV
[10] = all treated population, Total, N=29, 1,050/1,400 mg IV, number of participants
[11] = response evaluable population, IHC 1+, N=4, 1,050/1,400 mg IV
[12] = response evaluable population, IHC 1+, N=4, 1,050/1,400 mg IV, number of participants
[13] = response evaluable population, IHC 2+, N=11, 1,050/1,400 mg IV
[14] = response evaluable population, IHC 2+, N=11, 1,050/1,400 mg IV, number of participants
[15] = response evaluable population, IHC 3+, N=9, 1,050/1,400 mg IV
[16] = response evaluable population, IHC 3+, N=9, 1,050/1,400 mg IV, number of participants
[17] = response evaluable population, Total, N=24, 1,050/1,400 mg IV
[18] = response evaluable population, Total, N=24, 1,050/1,400 mg IV, number of participants

Substance: amivantamab
- Disease control rate (CR + PR + SD) [1]: (20.0%)
- Not Evaluable (NE) [1]: (40.0%)
- Progressive Disease (PD) [1]: (40.0%)
- Complete response (CR) [2]: 0
- Disease control rate (CR + PR + SD) [2]: 1
- Not Evaluable (NE) [2]: 2
- Objective response rate (CR + PR) [2]: 0
- Partial response (PR) [2]: 0
- Progressive Disease (PD) [2]: 2
- Disease control rate (CR + PR + SD) [3]: (9.1%)
- Not Evaluable (NE) [3]: (9.1%)
- Progressive Disease (PD) [3]: (81.8%)
- Complete response (CR) [4]: 0
- Disease control rate (CR + PR + SD) [4]: 1
- Not Evaluable (NE) [4]: 1
- Objective response rate (CR + PR) [4]: 0
- Partial response (PR) [4]: 0
- Progressive Disease (PD) [4]: 9
- Disease control rate (CR + PR + SD) [5]: (44.4%)
- Objective response rate (CR + PR) [5]: (11.1%)
- Partial response (PR) [5]: (11.1%)
- Progressive Disease (PD) [5]: (55.6%)
- Complete response (CR) [6]: 0
- Disease control rate (CR + PR + SD) [6]: 4
- Not Evaluable (NE) [6]: 0
- Objective response rate (CR + PR) [6]: 1
- Partial response (PR) [6]: 1
- Progressive Disease (PD) [6]: 5
- Disease control rate (CR + PR + SD) [7]: (25.0%)
- Progressive Disease (PD) [7]: (75.0%)
- Complete response (CR) [8]: 0
- Disease control rate (CR + PR + SD) [8]: 1
- Not Evaluable (NE) [8]: 0
- Objective response rate (CR + PR) [8]: 0
- Partial response (PR) [8]: 0
- Progressive Disease (PD) [8]: 3
- Disease control rate (CR + PR + SD) [9]: (24.1%)
- Not Evaluable (NE) [9]: (10.3%)
- Objective response rate (CR + PR) [9]: (3.4%)
- Partial response (PR) [9]: (3.4%)
- Progressive Disease (PD) [9]: (65.5%)
- Complete response (CR) [10]: 0
- Disease control rate (CR + PR + SD) [10]: 7
- Not Evaluable (NE) [10]: 3
- Objective response rate (CR + PR) [10]: 1
- Partial response (PR) [10]: 1
- Progressive Disease (PD) [10]: 19
- Disease control rate (CR + PR + SD) [11]: (25.0%)
- Not Evaluable (NE) [11]: (25.0%)
- Progressive Disease (PD) [11]: (50.0%)
- Complete response (CR) [12]: 0
- Disease control rate (CR + PR + SD) [12]: 1
- Not Evaluable (NE) [12]: 1
- Objective response rate (CR + PR) [12]: 0
- Partial response (PR) [12]: 0
- Progressive Disease (PD) [12]: 2
- Disease control rate (CR + PR + SD) [13]: (9.1%)
- Not Evaluable (NE) [13]: (9.1%)
- Progressive Disease (PD) [13]: (81.8%)
- Complete response (CR) [14]: 0
- Disease control rate (CR + PR + SD) [14]: 1
- Not Evaluable (NE) [14]: 1
- Objective response rate (CR + PR) [14]: 0
- Partial response (PR) [14]: 0
- Progressive Disease (PD) [14]: 9
- Disease control rate (CR + PR + SD) [15]: (44.4%)
- Objective response rate (CR + PR) [15]: (11.1%)
- Partial response (PR) [15]: (11.1%)
- Progressive Disease (PD) [15]: (55.6%)
- Complete response (CR) [16]: 0
- Disease control rate (CR + PR + SD) [16]: 4
- Not Evaluable (NE) [16]: 0
- Objective response rate (CR + PR) [16]: 1
- Partial response (PR) [16]: 1
- Progressive Disease (PD) [16]: 5
- Not Evaluable (NE) [17]: (8.3%)
- Objective response rate (CR + PR) [17]: (4.2%)
- Partial response (PR) [17]: (4.2%)
- Progressive Disease (PD) [17]: (66.7%)
- Complete response (CR) [18]: 0
- Disease control rate (CR + PR + SD) [18]: 6
- Not Evaluable (NE) [18]: 2
- Objective response rate (CR + PR) [18]: 1
- Partial response (PR) [18]: 1
- Progressive Disease (PD) [18]: 16
